Laboratory results: EP0400190A1, “New water-soluble derivatives of nabumetone, a process for their preparation and pharmaceutical compositions which contain them” (MAGIS FARMACEUTICI S.p.A., priority 1989, dated 1990)

Columns and labels:
[1] = tested on: edema induced in the rat by formalin; assay: Anti-inflammatory activity on formalin-induced edema; format: in vivo; settings: read-out: ED₅₀
Description: The anti-inflammatory activity of these enamines was studied in comparison with acetylsalicylic acid on edema induced in the rat by formalin.

mice = assay: Analgesic activity, Writhing test using p-phenylquinone; format: in vivo; settings: Mus musculus, po, mice treated orally, read-out: ED₅₀
Procedure: The analgesic activity was measured by the Writhing test using p-phenylquinone on mice treated orally with the nabumetone enamines in comparison with acetylsalicylic acid, the results showing an ED₅₀ (mg/Kg) for the enamines of about 80 whereas for acetylsalicylic acid the value is about 106.1.

`CC(=O)Oc1ccccc1C(=O)O` [acetylsalicylic acid] was tested, and the ED50 [1] was about 313 mg/kg and the ED50 (mice) was about 106 mg/kg.
